# Experimental data taken from patent publication US9353088B2, “Crystalline pharmaceutical and methods of preparation and use thereof” (SARcode Bioscience Inc., priority 2009, dated 2016).
# “And” between values parts separate entries of the source, which are not always exact repeats. Equal values may be shown once. Read-outs that look alike come from different tables or passages of the source.
# Columns and labels:
# [1] = test system: Keratoconjunctivitis Sicca (KCS); assay: Canine keratoconjunctivitis sicca (KCS) study; format: in vivo, dog; conditions: for Schirmer Tear Test (OS), Mean: Dog #7 not included
# Description: If dogs had been treated with topical CsA or tacrolimus in the previous six months, they were not enrolled. […] Animals were subjected to an ocular examination once during the initial visit and during five visits over sixteen weeks of the study (Weeks, 2, 4, 8, 12 and 16). The last OE was approximately four weeks after the last dose of the compound of Formula I and after one month of CsA treatment. The adnexa and anterior portions of both eyes were examined using an indirect opthalmoscope. The eyes were dilated with a mydriatic when applicable, to allow evaluation of the lens and fundus, including the retina. An evaluation using a modified McDonald-Shaddock scoring system was performed in conjunction with the slitlamp ocular examinations at each interval. Tears were measured using STT strips during the initial visit and each of the five follow-up visits on Weeks 2, 4, 8, 12 and 16. One strip of STT paper was used for each eye for each interval. […] The length, in mm, of wetting below the notch of the paper was recorded. Fluorescein and rose bengal staining was performed at the each of the initial and follow up examinations. Intraocular pressure measurements (IOPs) were performed using a Tono-Pet Vet® in conjunction with each of the OEs. Digital ocular images were taken before and after staining (with fluorescein and rose bengal) during each of the OEs. Conjunctival biopsies were taken at the initial (pretreatment) visit and the Week 12 visit. The second biopsy was taken more lateral (approx. 1 mm) to the initial biopsy. Following appropriate preparation a small conjunctival biopsy was taken from the ventral fornix of each eye.
# LFA-1 = target: T1, LFA-1 (Homo sapiens, UniProt P05107+P20701); assay: in vitro cell assays (cell attachment and SEB IL-2 release); format: cell-based
# T1 construct: LFA-1 levels in in vitro cell assays (cell attachment and SEB IL-2 release); endogenous in cells; host or cells: human T-cell lines (HuT 78 / Jurkat) and human PBMC
# T1 sequence (P20701 26-1170): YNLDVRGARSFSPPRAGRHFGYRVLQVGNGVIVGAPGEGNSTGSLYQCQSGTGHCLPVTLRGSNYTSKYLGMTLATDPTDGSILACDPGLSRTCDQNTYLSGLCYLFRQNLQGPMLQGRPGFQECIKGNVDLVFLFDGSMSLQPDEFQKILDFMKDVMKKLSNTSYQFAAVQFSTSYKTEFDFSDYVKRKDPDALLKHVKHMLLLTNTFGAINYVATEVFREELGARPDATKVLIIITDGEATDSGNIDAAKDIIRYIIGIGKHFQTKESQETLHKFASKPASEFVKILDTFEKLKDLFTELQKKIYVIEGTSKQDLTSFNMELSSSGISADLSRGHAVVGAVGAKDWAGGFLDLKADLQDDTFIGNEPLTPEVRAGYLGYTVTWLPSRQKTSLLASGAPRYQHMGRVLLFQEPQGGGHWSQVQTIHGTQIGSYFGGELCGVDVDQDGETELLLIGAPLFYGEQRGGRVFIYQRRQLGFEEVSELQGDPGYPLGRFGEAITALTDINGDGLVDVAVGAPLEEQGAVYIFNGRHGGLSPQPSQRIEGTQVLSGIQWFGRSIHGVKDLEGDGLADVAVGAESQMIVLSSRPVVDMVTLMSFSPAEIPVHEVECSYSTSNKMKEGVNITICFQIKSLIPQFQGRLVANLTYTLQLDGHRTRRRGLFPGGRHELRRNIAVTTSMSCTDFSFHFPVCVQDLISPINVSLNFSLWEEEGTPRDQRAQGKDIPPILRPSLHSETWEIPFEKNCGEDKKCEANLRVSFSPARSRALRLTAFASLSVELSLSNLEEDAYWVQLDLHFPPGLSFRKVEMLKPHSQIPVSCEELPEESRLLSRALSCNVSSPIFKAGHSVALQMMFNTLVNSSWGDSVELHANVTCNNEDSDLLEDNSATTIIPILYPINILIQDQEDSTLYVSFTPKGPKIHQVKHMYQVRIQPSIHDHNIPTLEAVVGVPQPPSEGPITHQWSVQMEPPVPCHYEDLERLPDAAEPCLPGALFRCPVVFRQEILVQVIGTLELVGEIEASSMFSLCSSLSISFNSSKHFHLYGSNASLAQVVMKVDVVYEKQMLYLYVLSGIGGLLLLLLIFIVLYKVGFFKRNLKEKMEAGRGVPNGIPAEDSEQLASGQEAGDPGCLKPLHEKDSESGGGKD
# T1 sequence (P05107 23-769): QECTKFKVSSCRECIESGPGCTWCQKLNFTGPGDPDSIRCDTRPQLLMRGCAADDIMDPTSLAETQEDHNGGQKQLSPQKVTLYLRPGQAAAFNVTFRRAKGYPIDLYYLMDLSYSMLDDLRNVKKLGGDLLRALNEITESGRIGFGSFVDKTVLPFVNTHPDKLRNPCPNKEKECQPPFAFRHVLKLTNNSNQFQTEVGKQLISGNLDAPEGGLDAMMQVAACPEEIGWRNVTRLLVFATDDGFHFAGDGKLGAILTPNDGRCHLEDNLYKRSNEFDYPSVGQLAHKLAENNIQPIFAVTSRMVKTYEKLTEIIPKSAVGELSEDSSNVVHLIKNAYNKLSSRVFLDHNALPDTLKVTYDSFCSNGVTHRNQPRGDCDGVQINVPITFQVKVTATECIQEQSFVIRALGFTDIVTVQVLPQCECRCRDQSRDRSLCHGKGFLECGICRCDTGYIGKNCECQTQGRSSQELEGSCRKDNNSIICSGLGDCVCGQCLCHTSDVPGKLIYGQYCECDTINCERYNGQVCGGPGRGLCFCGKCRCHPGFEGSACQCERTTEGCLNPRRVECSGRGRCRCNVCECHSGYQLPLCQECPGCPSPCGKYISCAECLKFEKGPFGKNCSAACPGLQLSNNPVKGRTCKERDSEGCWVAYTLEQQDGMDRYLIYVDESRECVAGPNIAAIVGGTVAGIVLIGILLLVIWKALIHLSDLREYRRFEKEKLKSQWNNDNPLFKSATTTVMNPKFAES
# [2] = dog, in vivo
# [3] = Solubility studies for dermal formulations; format: physicochemical
# [4] = CNS effects, single bolus IV injection; format: in vivo, rats; conditions: 10.0 mg/kg IV, 1 minute to 6 hours postdose, 2/6 animals
# Description: No effect on any other parameters was observed.
# [5] = rabbit, in vivo
# [6] = Single dose ocular and IV ADME with [14C]-compound; format: in vivo, dogs
# Description: No differences in results from male and female dogs were observed.
# [7] = In-vitro percutaneous absorption following topical application
# [8] = Phase 1 clinical trial of Ophthalmic Solution, safety and tolerability; format: in vivo, human
# Description: The objectives of the trial were to measure safety and tolerability, and pharmacokinetics in tear and plasma. The dosing schedule (OU; Oculus Uterque (each eye or both eyes)) was divided into 3 periods, each separated by a 72-hour wash out interval: once/day×1 day (drug one eye; placebo fellow eye), twice/day×10 days, and thrice/day×10 days, 14-day observation. Slit lamp examination of the eye, BCVA (Best Corrected Visual Acuity), STTs (Schirmer Tear Test), TBUT (Tear Break-Up Time), IOP (Intraocular pressure) were assessed at screening and the beginning and end of each period. For each cohort, masked safety data was reviewed by a Safety Committee prior to allowing dose escalation of the next cohort. A total of 2856 doses (102 drops/subject) were administered over 1148 total subject study days (41 study days/subject) in 56 eyes. All subjects in all cohorts completed the study, and no study drug doses were missed.
# [9] = test system: Chinese hamster ovary (CHO) cells; assay: In vitro chromosomal aberration assay in CHO cells; format: cell-based; conditions: with and without metabolic activation; except single toxic dose 3500 μg/mL without activation
# Description: The biological relevance of this response is equivocal due to cytotoxicity.
# [10] = Cardiovascular effects in conscious telemetry-instrumented dogs, IV bolus; format: in vivo, dogs (beagles); conditions: IV bolus injection
# [11] = 13-week ocular toxicity study with 4-week recovery; conditions: 13-week ocular (3%)
# [12] = Pilot ocular tolerance of topically administered compound in dogs-PK; format: in vivo; conditions: up to 10% strength at 3 doses/day
# [13] = test system: attachment of Jurkat cells to ICAM-1; assay: T-cell adhesion assay using Jurkat cells; format: cell-based, human; conditions: versus positive control
# Method: A reported LFA-1 antagonist was used as the positive control.
# Jurkat cells were labeled with an 8 μM solution of BCECF-AM (2′,7′-bis-(2-carboxyethyl)-5-(and -6)-carboxyfluorescein) in growth media at room temperature for 15 minutes. […] Non-adherent cells were removed by washing and centrifugation at 100 g for 1 minute. Adherent cells were determined as adherent fluorescent units on a fluorescent plate reader.
# [14] = Tear PK after single topical ocular instillation; conditions: single topical ocular instillation, 0.1, 1.0 or 3.0%
# [15] = 13-week ocular toxicity study with 4-week recovery; conditions: 13-week ocular (3%); remark: listed apart in the source
# [16] = Week 1 (initial visit), individual dogs, Dog ID 1-7 = r5-r11
# [17] = Week 2, individual dogs, 1% solution TID, listed as compound of Formula I
# [18] = Week 4, individual dogs, 1% solution TID, listed as compound of Formula I
# [19] = Week 8, individual dogs, 1% solution TID, listed as compound of Formula I
# [20] = Week 12, individual dogs, 1% solution TID, listed as compound of Formula I
# [21] = Week 16, individual dogs, four weeks after last dose and after one month of CsA
# [22] = Weeks 1-12, individual dogs 1-7 = r6-r12
# [23] = during the 12-week treatment period
structure (smiles),measurement,setting,value
CS(=O)(=O)c1cccc(C[C@H](NC(=O)c2c(Cl)cc3c(c2Cl)CCN(C(=O)c2ccc4ccoc4c2)C3)C(=O)O)c1 [Compound of Formula I],Schirmer Tear Test (OS),[1],9 mm
same,Schirmer Tear Test (OS),[1]; 672 h,17 mm
same,"Schirmer Tear Test (OD), Mean","[1]; Week 1 (initial visit), Dog #1 not included",5.5 mm
same,"Schirmer Tear Test (OS), Mean",[1]; Week 1 (initial visit),4.2 mm
same,Schirmer Tear Test (OD),[1]; [16],8 mm (2×) and 6 mm (2×) and 15 mm and 0 mm and 5 mm
same,Schirmer Tear Test (OS),[1]; [16],18 mm and 0 mm (3×) and 9 mm and 7 mm
same,"Schirmer Tear Test (OD), Mean","[1]; Week 2, Dog #1 not included",7.8 mm
same,"Schirmer Tear Test (OS), Mean",[1]; Week 2,4.8 mm
same,Schirmer Tear Test (OS),"[1]; Week 2, individual dogs, 1% solution TID",4 mm
same,Schirmer Tear Test (OD),[1]; [17],10 mm and 2 mm (2×) and 18 mm and 11 mm (3×)
same,Schirmer Tear Test (OS),[1]; [17],0 mm (2×) and 14 mm and 3 mm and 8 mm
same,"Schirmer Tear Test (OD), Mean","[1]; Week 4, Dog #1 not included",7.0 mm
same,"Schirmer Tear Test (OS), Mean",[1]; Week 4,6.7 mm
same,Schirmer Tear Test (OS),"[1]; Week 4, individual dogs, 1% solution TID",14 mm
same,Schirmer Tear Test (OD),[1]; [18],15 mm and 2 mm and 12 mm and 0 mm and 5 mm and 10 mm (2×)
same,Schirmer Tear Test (OS),[1]; [18],0 mm (2×) and 7 mm and 5 mm and 14 mm
same,"Schirmer Tear Test (OD), Mean","[1]; Week 8, Dog #1 not included",8.5 mm
same,"Schirmer Tear Test (OS), Mean",[1]; Week 8,6.5 mm
same,Schirmer Tear Test (OS),"[1]; Week 8, individual dogs, 1% solution TID",8 mm
same,Schirmer Tear Test (OD),[1]; [19],17 mm and 1 mm and 16 mm and 8 mm and 7 mm (2×) and 11 mm
same,Schirmer Tear Test (OS),[1]; [19],19 mm and 0 mm and 2 mm and 17 mm and 6 mm and 8 mm
same,"Schirmer Tear Test (OD), Mean","[1]; Week 12, Dog #1 not included",8.8 mm
same,"Schirmer Tear Test (OS), Mean",[1]; Week 12,8.7 mm
same,Schirmer Tear Test (OS),"[1]; Week 12, individual dogs, 1% solution TID",8 mm
same,Schirmer Tear Test (OD),[1]; [20],16 mm and 0 mm and 13 mm (2×) and 8 mm and 7 mm and 9 mm
same,Schirmer Tear Test (OS),[1]; [20],18 mm and 3 mm and 7 mm and 15 mm and 4 mm and 8 mm
same,"Schirmer Tear Test (OD), Mean","[1]; Week 16, after one month of CsA, Dog #1 and anomalous Dog #5 value not included",11.7 mm
same,"Schirmer Tear Test (OS), Mean","[1]; Week 16, after one month of CsA",11.0 mm
same,Schirmer Tear Test (OD),[1]; [21],18 mm and 12 mm (2×) and 8 mm (3×) and 22** mm
same,Schirmer Tear Test (OS),[1]; [21],18 mm and 3 mm and 5 mm and 16 mm and 7 mm and 19 mm
same,"Maximum-Minimum analysis, Total OD",[1]; Weeks 1-12,Total = 28
same,"Maximum-Minimum analysis, Total OS",[1]; Weeks 1-12,Total = 44
same,"Maximum-Minimum analysis, maximal change in STT, OD",[1]; [22],3 and 8 (3×) and −4 and 5
same,"Maximum-Minimum analysis, maximal change in STT, OS",[1]; [22],7 (2×) and 11 and 3 and 10 and 6
same,"average STT improvement, all 12 eyes",[1]; [23],4 mm
same,average improvement in OD (right eye) STT,[1]; [23],3.3 mm
same,average improvement in OS (left eye) STT,[1]; [23],4.5 mm
same,Histopathological evaluation of conjunctival biopsies before and after treatment,[1]; pretreatment vs Week 12,attenuation of lymphocyte accumulation
same,Schirmer test scores over pretreatment,[1]; week 12,Significant improvement
same,IC50,LFA-1,2 nM
same,level in vitreous fluid,[2],not detected
same,solubility,[3]; ethanol/glycol/transcutol solution,10 % (w/w)
same,solubility,[3]; water/glycol/transcutol solution,2 % (w/w)
same,CNS observations,[4],Transient miosis
same,level in vitreous fluid,[5],not detected
same,levels in conjunctiva/cornea,"[6]; for 16 hrs, dog",greater than 1 micromolar
same,"metabolites in pooled plasma, urine and fecal homogenate",[6]; up to 168 hrs post-dose,no metabolites detected
same,dose penetration into dermis,[7]; determined using [14C]-compound,2-4%
same,compound level in dermis,"[7]; skin transport studies, microtomed human skin, 1% (w/w) prototypes",greater than 10 micromolar
same,adverse events considered related to administration,"[8]; any dose strength (0.1-5%) or dose regimen, healthy adults","No deaths, discontinuations, serious or severe ocular or non-ocular AEs"
same,"total lymphocyte, CD3, CD4, CD8 cell counts",[8]; throughout the trial,no evidence of lymphocyte or neutrophil suppression
same,overall safety and tolerability,"[8]; topical ocular instillation, dose strengths up to 5% TID",safe and well-tolerated
same,induction of structural chromosomal aberrations,[9],negative
same,effects on electrocardiography or hemodynamic parameters,[10],No effects
same,NOAEL,[11],1.05 mg/eye/3× per day
same,ocular safety and tolerability,[12],safe and well tolerated
same,"dose response curve and IC50, Jurkat cell attachment",[13],comparable to that of the known direct competitive LFA-1 antagonist
same,time to maximal mean tear concentration,[14],≤ 30 min
same,NOAEL,[15],1.05 mg/eye/3× per day
